Reference: patent publication US6737383B1, “Herbicidal oxadiazolidines” (priority 1999, dated 2004)

Columns and labels:
crabgrass = test: Test B pre/postemergence crabgrass; assay type: in vivo, Digitaria sanguinalis
Summary of the method: (§1)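 Test chemicals in a non-phytotoxic solvent mixture with surfactant were sprayed preemergence onto planted seeds and postemergence onto plants 2 to 18 cm tall (1- to 4-leaf stage). After twelve to sixteen days in a greenhouse, injury was visually rated against untreated controls from 0 (no effect) to 10 (complete control).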

soybean = test: Test B pre/postemergence soybean; assay type: in vivo, Glycine max
Summary of the method: as §1

corn = test: Test B pre/postemergence corn; assay type: in vivo, Zea mays
Summary of the method: as §1

velvetleaf = test: Test B pre/postemergence velvetleaf; assay type: in vivo, Abutilon theophrasti
Summary of the method: as §1

giant foxtail = test: Test B pre/postemergence giant foxtail; assay type: in vivo, Setaria faberii
Summary of the method: as §1

wheat = test: Test B pre/postemergence wheat; assay type: in vivo, Triticum aestivum
Summary of the method: as §1

blackgrass = test: Test B pre/postemergence blackgrass; assay type: in vivo, Alopecurus myosuroides
Summary of the method: as §1

pigweed = test: Test B pre/postemergence pigweed; assay type: in vivo, Amaranthus retroflexus
Summary of the method: as §1

bedstraw = test: Test B pre/postemergence bedstraw; assay type: in vivo, Galium aparine
Summary of the method: as §1

sugar beet = test: Test B pre/postemergence sugar beet; assay type: in vivo, Beta vulgaris
Summary of the method: as §1

cocklebur = test: Test B pre/postemergence cocklebur; assay type: in vivo, Xanthium strumarium
Summary of the method: as §1

surinam grass = test: Test B pre/postemergence surinam grass; assay type: in vivo, Brachiaria decumbens
Summary of the method: as §1

wild oat = test: Test B pre/postemergence wild oat; assay type: in vivo, Avena fatua
Summary of the method: as §1

purple nutsedge = test: Test B pre/postemergence purple nutsedge; assay type: in vivo, Cyperus rotundus
Summary of the method: as §1

morningglory = test: Test B pre/postemergence morningglory; assay type: in vivo, Ipomoea hederacea
Summary of the method: as §1

rape = test: Test B pre/postemergence rape; assay type: in vivo, Brassica napus
Summary of the method: as §1

[1] = Postemergence, Rate 62 g/ha, scale 0 to 10, 0 is no effect, 10 is complete control
[2] = Postemergence, Rate 125 g/ha, scale of 0 to 10 where 0 is no effect and 10 is complete control
[3] = Preemergence, Rate 125 g/ha, scale of 0 to 10 where 0 is no effect and 10 is complete control
[4] = Preemergence, Rate 250 g/ha, scale 0 (no effect) to 10 (complete control)
[5] = Rate 62 g/ha, Preemergence, scale 0 to 10
[6] = Rate 250 g/ha, Postemergence, scale 0 to 10, 0 is no effect, 10 is complete control
[7] = Rate 500 g/ha, Postemergence, scale 0 to 10, 0 is no effect, 10 is complete control
[8] = Rate 500 g/ha, Preemergence, scale 0 to 10 (0 no effect, 10 complete control)
[9] = Rate 1000 g/ha, Preemergence, scale 0 to 10 (0 no effect, 10 complete control)

SMILES: CC(C)N(C(=O)n1oc(=O)n(C[C@H](C)Cl)c1=O)c1ccc(Cl)cc1 [Compound 748]
- Plant response rating, Crabgrass (crabgrass; [1]): 2
- Crabgrass plant response rating (crabgrass; [2]): 3
- Plant response rating, Crabgrass (crabgrass; [3]): 10
- Crabgrass plant response rating (crabgrass; [4]): 10
- Crabgrass plant response rating (crabgrass; [5]): 9
- Crabgrass plant response rating (crabgrass; [6]): 8
- Crabgrass plant response rating (crabgrass; [7]): 9
- Crabgrass plant response rating (crabgrass; [8]): 10
- Plant response rating, Soybean (soybean; [1]): 3
- Soybean plant response rating (soybean; [2]): 3
- Plant response rating, Soybean (soybean; [3]): 0
- Soybean plant response rating (soybean; [4]): 0
- Soybean plant response rating (soybean; [5]): 0
- Soybean plant response rating (soybean; [6]): 4
- Soybean plant response rating (soybean; [7]): 5
- Soybean plant response rating (soybean; [8]): 0
- Plant response rating, Corn (corn; [1]): 0
- Corn plant response rating (corn; [2]): 0
- Plant response rating, Corn (corn; [3]): 0
- Corn plant response rating (corn; [4]): 0
- Corn plant response rating (corn; [5]): 0
- Corn plant response rating (corn; [6]): 0
- Corn plant response rating (corn; [7]): 0
- Corn plant response rating (corn; [8]): 4
- Plant response rating, Velvetleaf (velvetleaf; [1]): 0
- Velvetleaf plant response rating (velvetleaf; [2]): 0
- Plant response rating, Velvetleaf (velvetleaf; [3]): 0
- Velvetleaf plant response rating (velvetleaf; [4]): 0
- Velvetleaf plant response rating (velvetleaf; [5]): 0
- Velvetleaf plant response rating (velvetleaf; [6]): 0
- Velvetleaf plant response rating (velvetleaf; [7]): 4
- Velvetleaf plant response rating (velvetleaf; [8]): 0
- Plant response rating, Giant foxtail (giant foxtail; [1]): 2
- Giant foxtail plant response rating (giant foxtail; [2]): 6
- Plant response rating, Giant foxtail (giant foxtail; [3]): 10
- Giant foxtail plant response rating (giant foxtail; [4]): 10
- Giant foxtail plant response rating (giant foxtail; [5]): 9
- Giant foxtail plant response rating (giant foxtail; [6]): 8
- Giant foxtail plant response rating (giant foxtail; [7]): 9
- Giant foxtail plant response rating (giant foxtail; [8]): 10
- Plant response rating, Wheat (wheat; [1]): 0
- Wheat plant response rating (wheat; [2]): 0
- Plant response rating, Wheat (wheat; [3]): 0
- Wheat plant response rating (wheat; [4]): 0
- Wheat plant response rating (wheat; [5]): 0
- Wheat plant response rating (wheat; [6]): 0
- Wheat plant response rating (wheat; [8]): 5
- Plant response rating, Blackgrass (blackgrass; [1]): 5
- Blackgrass plant response rating (blackgrass; [2]): 6
- Plant response rating, Blackgrass (blackgrass; [3]): 3
- Blackgrass plant response rating (blackgrass; [5]): 0
- Blackgrass plant response rating (blackgrass; [6]): 7
- Blackgrass plant response rating (blackgrass; [7]): 8
- Blackgrass plant response rating (blackgrass; [8]): 9
- Plant response rating, Redroot pigweed (pigweed; [1]): 2
- Redroot pigweed plant response rating (pigweed; [2]): 4
- Plant response rating, Redroot pigweed (pigweed; [3]): 10
- Redroot pigweed plant response rating (pigweed; [4]): 10
- Redroot pigweed plant response rating (pigweed; [5]): 4
- Redroot pigweed plant response rating (pigweed; [6]): 6
- Redroot pigweed plant response rating (pigweed; [7]): 8
- Redroot pigweed plant response rating (pigweed; [8]): 10
- Plant response rating, Bedstraw (bedstraw; [1]): 5
- Bedstraw plant response rating (bedstraw; [2]): 6
- Plant response rating, Bedstraw (bedstraw; [3]): 0
- Bedstraw plant response rating (bedstraw; [4]): 0
- Bedstraw plant response rating (bedstraw; [6]): 9
- Bedstraw plant response rating (bedstraw; [7]): 9
- Bedstraw plant response rating (bedstraw; [8]): 0
- Plant response rating, Sugarbeets (sugar beet; [1]): 0
- Sugarbeets plant response rating (sugar beet; [2]): 2
- Plant response rating, Sugarbeets (sugar beet; [3]): 0
- Sugarbeets plant response rating (sugar beet; [4]): 2
- Sugarbeets plant response rating (sugar beet; [5]): 0
- Sugarbeets plant response rating (sugar beet; [6]): 6
- Sugarbeets plant response rating (sugar beet; [7]): 7
- Sugarbeets plant response rating (sugar beet; [8]): 7
- Plant response rating, Cocklebur (cocklebur; [1]): 0
- Cocklebur plant response rating (cocklebur; [2]): 0
- Plant response rating, Cocklebur (cocklebur; [3]): 0
- Cocklebur plant response rating (cocklebur; [4]): 0
- Cocklebur plant response rating (cocklebur; [5]): 0
- Cocklebur plant response rating (cocklebur; [6]): 0
- Cocklebur plant response rating (cocklebur; [8]): 0
- Plant response rating, B. signalgrass (surinam grass; [1]): 2
- B. signalgrass plant response rating (surinam grass; [2]): 2
- B. signalgrass plant response rating (surinam grass; Preemergence, Rate 62 g/ha, scale of 0 to 10 where 0 is no effect and 10 is complete control): 0
- Plant response rating, B. signalgrass (surinam grass; [3]): 3
- B. signalgrass plant response rating (surinam grass; [4]): 3
- B. signalgrass plant response rating (surinam grass; [6]): 4
- B. signalgrass plant response rating (surinam grass; [7]): 7
- B. signalgrass plant response rating (surinam grass; [8]): 10
- Plant response rating, Wild oats (wild oat; [1]): 0
- Wild oats plant response rating (wild oat; [2]): 0
- Plant response rating, Wild oats (wild oat; [3]): 2
- Wild oats plant response rating (wild oat; [4]): 2
- Wild oats plant response rating (wild oat; [5]): 0
- Wild oats plant response rating (wild oat; [6]): 0
- Wild oats plant response rating (wild oat; [7]): 0
- Wild oats plant response rating (wild oat; [8]): 8
- Plant response rating, Nutsedge (purple nutsedge; [1]): 0
- Nutsedge plant response rating (purple nutsedge; [2]): 0
- Plant response rating, Nutsedge (purple nutsedge; [3]): 0
- Nutsedge plant response rating (purple nutsedge; [4]): 0
- Nutsedge plant response rating (purple nutsedge; [5]): 0
- Nutsedge plant response rating (purple nutsedge; [6]): 0
- Nutsedge plant response rating (purple nutsedge; [7]): 0
- Nutsedge plant response rating (purple nutsedge; [8]): 2
- Plant response rating, Morningglory (morningglory; [1]): 0
- Morningglory plant response rating (morningglory; [2]): 6
- Plant response rating, Morningglory (morningglory; [3]): 0
- Morningglory plant response rating (morningglory; [4]): 0
- Morningglory plant response rating (morningglory; [5]): 0
- Morningglory plant response rating (morningglory; [6]): 6
- Morningglory plant response rating (morningglory; [7]): 7
- Morningglory plant response rating (morningglory; [8]): 0
- Plant response rating, Rape (rape; [1]): 0
- Rape plant response rating (rape; [2]): 3
- Plant response rating, Rape (rape; [3]): 0
- Rape plant response rating (rape; [4]): 0
- Rape plant response rating (rape; [5]): 0
- Rape plant response rating (rape; [6]): 6
- Rape plant response rating (rape; [7]): 7
- Rape plant response rating (rape; [8]): 7

SMILES: COC(=O)C(c1ccccc1)n1c(=O)on(C(=O)N(c2ccccc2)C(C)C)c1=O (stereo not shown) [Compound 723]
- Plant response rating, Crabgrass (crabgrass; [3]): 2
- Crabgrass plant response rating (crabgrass; [4]): 2
- Crabgrass plant response rating (crabgrass; [8]): 9
- Plant response rating, Crabgrass (crabgrass; [9]): 9
- Plant response rating, Soybean (soybean; [3]): 0
- Soybean plant response rating (soybean; [4]): 0
- Soybean plant response rating (soybean; [8]): 0
- Plant response rating, Soybean (soybean; [9]): 0
- Plant response rating, Corn (corn; [3]): 0
- Corn plant response rating (corn; [4]): 0
- Corn plant response rating (corn; [8]): 0
- Plant response rating, Corn (corn; [9]): 0
- Plant response rating, Velvetleaf (velvetleaf; [3]): 0
- Velvetleaf plant response rating (velvetleaf; [4]): 0
- Velvetleaf plant response rating (velvetleaf; [8]): 0
- Plant response rating, Velvetleaf (velvetleaf; [9]): 0
- Plant response rating, Giant foxtail (giant foxtail; [3]): 7
- Giant foxtail plant response rating (giant foxtail; [4]): 9
- Giant foxtail plant response rating (giant foxtail; [8]): 10
- Plant response rating, Giant foxtail (giant foxtail; [9]): 10
- Plant response rating, Wheat (wheat; [3]): 0
- Wheat plant response rating (wheat; [4]): 0
- Wheat plant response rating (wheat; [8]): 0
- Plant response rating, Wheat (wheat; [9]): 0
- Plant response rating, Blackgrass (blackgrass; [3]): 0
- Blackgrass plant response rating (blackgrass; [4]): 0
- Blackgrass plant response rating (blackgrass; [8]): 2
- Plant response rating, Blackgrass (blackgrass; [9]): 6
- Plant response rating, Redroot pigweed (pigweed; [3]): 0
- Redroot pigweed plant response rating (pigweed; [4]): 0
- Redroot pigweed plant response rating (pigweed; [8]): 0
- Plant response rating, Redroot pigweed (pigweed; [9]): 5
- Plant response rating, Bedstraw (bedstraw; [3]): 0
- Bedstraw plant response rating (bedstraw; [4]): 0
- Bedstraw plant response rating (bedstraw; [8]): 0
- Plant response rating, Bedstraw (bedstraw; [9]): 0
- Plant response rating, Sugarbeets (sugar beet; [3]): 0
- Sugarbeets plant response rating (sugar beet; [4]): 0
- Sugarbeets plant response rating (sugar beet; [8]): 0
- Plant response rating, Sugarbeets (sugar beet; [9]): 0
- Plant response rating, Cocklebur (cocklebur; [3]): 0
- Cocklebur plant response rating (cocklebur; [4]): 0
- Cocklebur plant response rating (cocklebur; [8]): 0
- Plant response rating, Cocklebur (cocklebur; [9]): 0
- Plant response rating, B. signalgrass (surinam grass; [3]): 0
- B. signalgrass plant response rating (surinam grass; [4]): 2
- B. signalgrass plant response rating (surinam grass; [8]): 2
- Plant response rating, B. signalgrass (surinam grass; [9]): 6
- Plant response rating, Wild oats (wild oat; [3]): 0
- Wild oats plant response rating (wild oat; [4]): 0
- Wild oats plant response rating (wild oat; [8]): 0
- Plant response rating, Wild oats (wild oat; [9]): 8
- Plant response rating, Nutsedge (purple nutsedge; [3]): 0
- Nutsedge plant response rating (purple nutsedge; [4]): 0
- Plant response rating, Nutsedge (purple nutsedge; [9]): 0
- Plant response rating, Morningglory (morningglory; [3]): 0
- Morningglory plant response rating (morningglory; [4]): 0
- Morningglory plant response rating (morningglory; [8]): 0
- Plant response rating, Morningglory (morningglory; [9]): 0
- Plant response rating, Rape (rape; [3]): 0
- Rape plant response rating (rape; [4]): 0
- Rape plant response rating (rape; [8]): 0
- Plant response rating, Rape (rape; [9]): 2
